Source: patent publication US7414068B2, “Benzopyran derivatives substituted with secondary amines including tetrazole, method for the preparation thereof and pharmaceutical compositions containing them” (Dongbu Hannong Chemical Co., Ltd., priority 2002, dated 2008)

Experiments:
[1] = test system: A7r5 (Rat thoracic aorta smooth muscle cell line, ATCC); experiment: Inhibitory effect on accumulation of reactive oxygen species induced by hydrogen peroxide (DCF fluorescence); assay type: cell-based; conditions: hydrogen peroxide 50 μM
Protocol: To measure reactive oxygen species, H2DCFDA (2′,7′-dichlorodihydrofluorescein diacetate, Molecular Probes, Eugene, Oreg., USA) was used. If H2DCFDA, nonpolar material is transferred through cell membrane, it is changed to H2DCF (2′,7′-dichlorodihydrofluorescein), material impermeable to membrane by intracellular esterase. H2DCF is changed to high fluorescent DCF (2′,7′-dichlorofluorescein) by low fluorescent peroxidated oxygen or hydroxyl radical. H2DCFDA solution (10 mM) dissolved in DMSO was used before the experiment. A7r5 (Rat thoracic aorta smooth muscle cell line, ATCC), as smooth muscle cell was incubated in DMEM (Dulbecco's Modified Eagle's Medium) containing 10% of FBS (fetal bovine serum). Thereafter, the cell was incubated in 48 well plate for two days, then was incubated in serum-free DMEM for 24 hours to use for experiment. Krebs-linger buffer (Krebs-Ringer (K-R), 99.01 mM NaCl, 4.69 mM KCl, 1.87 mM CaCl2, 1.2 mM MgSO4, 1.03 mM K2HPO4, 25 mM NaHCO3, 20 mM Hepes, 11.1 mM D-glucose, pH 7.4) was used for washing and process of cell monolayers. After cell monolayers media was removed, each of test compounds (0.2 ml) was pre-treated to media, then incubated at 37° C. for 15 min. Final concentration was 50 μM, hydrogen peroxide was added. The media was allowed to stand for 30 min. The said solution from media was removed. The media was washed one time. H2DCFDA 20 μM was added to the media. The media was allowed to stand for 30 min. the media was washed two times. Thereafter, oxidation of H2DCFDA was measured by Fluorescence reader (FL600, Biotech Instruments, 485 nm excitation, 530 nm emission).

new born rats = experiment: Protective effect on ischemic-hypoxic brain injury (MRS); assay type: in vivo, rat; conditions: for Lip/Cr / Lip/NAA: MRS
Source text: By using the said report, the protective effect on brain damage induced by hypoxia […] was investigated. [Van der A. Toorn et al. Magnetic Resonance in Medicine, 1996, 36, 914-922]. It was reported that the lipid peak was increased in MRS by ischemic neuronal cell injury due to the destruction of cell membrane including blood-brain barrier. Also, it was reported that increase of lipid concentration was correlated to apoptosis. [A. Bizzi et al., Magnetic Resonance Imaging, 1996, 14, 581-592]. Therefore, it was reported that Lipid/NAA and Lipid/Cr obtained by comparing lipid with N-acetylaspartate (NAA) and creatine (Cr) as marker of neuronal cell was correlated to morphological changes and severity of apoptosis on hypoxic brain damage.
In new born rats (within 7 days, 10˜15 g), left carotid artery were intermitted for 3 hours to induce hypoxia. Test compounds were intraperitoneally injected before 1 hour of hypoxia. […] of which the carotid artery was intermitted was used as ischemic-hypoxic model, right eye of which the carotid artery was not intermitted was used as hypoxic model. Magnetic resonance spectrum was obtained from both models, after histological test, accomplished in one day from damage. From the said result, Lipid/NAA or Lipid/Cr was measured. Also, viability and morphological score by macroscopic observation of infarct volume was calculated.

[2] = test system: Low density lipoprotein of human (human LDL); experiment: Inhibitory effect against lipid peroxidation induced by copper (LDL oxidation, MDA); assay type: biochemical; conditions: CuSO4 10 μM, 37° C. 18 hours
Protocol: Low density lipoprotein of human (human LDL, sigma) was dissolved in water to be final concentration of 1 mg/ml. To remove EDTA (ethylenediamine tetraacetate), the aqueous solution was dialyzed in phosphate buffer at 4° C. for 18 hours. At this dialysis, phosphate buffer was changed three times. Phosphate buffer was added to LDL (100 μg LDL protein/ml) which EDTA was removed from the aqueous solution, additionally thereto CuSO4 10 μM as oxidant was added. […] Group to which CUSO4 was not added was used as blank group. Group to which CUSO4 and vehicle were added in place of test compounds was used as control group. The mixture was incubated at 37° C. for 18 hours. EDTA […] was added to the mixture to terminate the oxidation reaction.
As shown in example 4, Cu^2+ facilitates the oxidation reaction to produce malondialdehyde (MDA), lipid peroxidation product. The MDA quantification is achieved by reacting samples with 2-thiobarbituric acid (TBA) and measuring the absorbance at 530 nm. Also, 1,1,3,3-tetramethoxypropane purchased from sigma was used as standard materials. Inhibitory effect against lipid peroxidation of the test compounds was measured by MDA (nmol) to protein (mg). Decrease of MDA to that of control group was calculated.

[3] = Hypoxic, 50 mg/kg intraperitoneally

COC(OC)[C@@]1(C)Oc2ccc(N)cc2[C@H](N(Cc2nnn(C)n2)c2ccc(Cl)cc2)[C@H]1O [Example 11, (2S,3R,4S)-6-amino-4-[N-(4-chlorophenyl)-N-(2-methyl-2H-tetrazol-5-ylmethyl)amino]-3-hydroxy-2-methyl-2-dimethoxymethyl-3,4-dihydro-2H-1-benzopyran]
Inhibitory(%) against reactive oxygen species accumulation ([1]; addition 3 μM): 6% | Inhibitory(%) against reactive oxygen species accumulation ([1]; addition 10 μM): 82% | Inhibitory(%) against reactive oxygen species accumulation ([1]; addition 30 μM): 124% | Survival (%) (new born rats; 50 mg/kg): 79% | Survival (animals surviving/total) (new born rats; 50 mg/kg): 19/24 | Morphological score (new born rats; 50 mg/kg, macroscopic observation of infarct volume): 1.4 | Lip/Cr (new born rats; [3]): 1.55 | Lip/NAA (new born rats; [3]): 1.69 | Lip/NAA (new born rats; Ischemic-hypoxic, 50 mg/kg intraperitoneally 1 hour before hypoxia): 5.43 | Lip/Cr (new born rats; Ischemic-hypoxic, 50 mg/kg intraperitoneally): 5.16 | Inhibitory effect(%) against lipid peroxidation induced by copper ([2]; Addition 10^−5 M): 63.9% | Inhibitory effect(%) against lipid peroxidation induced by copper ([2]; Addition 10^−6 M): 54.9% | Inhibitory effect(%) against lipid peroxidation induced by copper ([2]; Addition 10^−7 M): 27.3%
